A word on the AUC: it is concentration integrated over time. Low readings indicate low exposure, high ones high exposure. As usually defined, the clearance is the rate of elimination divided by the concentration. A lower clearance goes with a low capacity for elimination. One may read the half-life as the time needed for the level to fall by half in the phase considered. What is called Cmax is the peak of the concentration-time curve. By bioavailability is commonly meant the share of a dose that reaches the circulation, judged against a reference dose that is usually intravenous.

Data on 2 molecules can be found in ChEMBL document CHEMBL3792350, “Discovery of a Potent and Orally Efficacious TGR5 Receptor Agonist” (ACS Med Chem Lett, 2016).

What all share (type): ADME, organism-based
The nature of data set [1]: AUC in C57Bl/6 mouse at 3 mg/kg administered via oral gavage by LC-MS/MS analysis. The note with it: in vivo.
A short description of data set [2]: Clearance in Sprague-Dawley rat at 1 mg/kg, iv as bolus dose by LC-MS/MS analysis. The following applies: in vivo.
Data set [3] in a line: Half life in Sprague-Dawley rat at 1 mg/kg, iv as bolus dose by LC-MS/MS analysis. The following applies: in vivo.
A short description of data set [4]: Cmax in Sprague-Dawley rat at 3 mg/kg administered via oral gavage by LC-MS/MS analysis. The following applies: in vivo. The arrangement: dose 3 mg/kg, route oral.
The nature of data set [5]: AUC in Sprague-Dawley rat at 3 mg/kg administered via oral gavage by LC-MS/MS analysis. The note with it: in vivo.
A short description of data set [6]: Oral bioavailability in Sprague-Dawley rat at 3 mg/kg administered via oral gavage by LC-MS/MS analysis. The note with it: in vivo.
Data set [7] in a line: Volume of distribution at steady state in Sprague-Dawley rat at 1 mg/kg, iv as bolus dose by LC-MS/MS analysis. The note with it: in vivo, read-out: Vdss.
Data set [8] is described as follows: Oral bioavailability in C57Bl/6 mouse at 3 mg/kg administered via oral gavage by LC-MS/MS analysis. The following applies: in vivo.
Data set [9] in a line: Clearance in C57Bl/6 mouse at 1 mg/kg, iv as bolus dose by LC-MS/MS analysis. The following applies: in vivo.
A short description of data set [10]: Cmax in C57Bl/6 mouse at 3 mg/kg administered via oral gavage by LC-MS/MS analysis. Further details: dose 3 mg/kg, route oral. The note with it: in vivo.
The nature of data set [11]: Volume of distribution at steady state in C57Bl/6 mouse at 1 mg/kg, iv as bolus dose by LC-MS/MS analysis. The following applies: in vivo, read-out: Vdss.
Data set [12] has as its system Mus musculus. As to the kind of experiment: fAUC in po dosed diet-induced obese C57 mouse administered as single dose 15 mins. The note with it: in vivo, 0.25 h.
A short description of data set [13]: Half life in C57Bl/6 mouse at 1 mg/kg, iv as bolus dose by LC-MS/MS analysis. The note with it: in vivo.

Take `COc1ccc(C(C)(C)c2cnc(SCCOc3ccc(-n4ccnc4)cc3)n2-c2ccc(F)cc2)cc1OC`: the figures for the AUC in data set [1] and in data set [5] were 754 ng·h/mL and 207 ng·h/mL, respectively. In addition, the figures for the clearance in [2] and in data set [9] were 79.7 mL/min/kg and 47.3 mL/min/kg, respectively. Also, the half-life was 19.2 min in [3] and 19.8 min in data set [13]. Further, the values for the Cmax in [4] and in [10] were 148 ng/mL and 789 ng/mL, respectively. For the same molecule, the bioavailability was 31% in data set [6] and 71% in [8]. For the same molecule, the Vd came out at 2.05 L/kg in data set [7] and 0.83 L/kg in data set [11]. This molecule also came in with a fAUC in [12] of 231.38 ng·h/mL.

With `COc1ccc(C(C)(C)c2cnc(SCc3c(F)cccc3Cl)n2-c2ccc(F)cc2)cc1OC`, the AUC in data set [1] amounted to 73.5 ng·h/mL. In data set [8], the bioavailability worked out at 7%. This molecule registered a clearance in data set [9] of 45.5 mL/min/kg. The peak level in [10] (Cmax) was 51.8 ng/mL. The Vd in data set [11] was determined as 1.54 L/kg. Besides, the half-life in [13] is 45.6 min.
